Measured values from patent US12673924B2, “Valiolamine derivatives as glucosidase inhibitors” (Emergent Product Development Gaithersburg Inc., priority 2021, dated 2026).

Key:
Format in all cases: biochemical
rat maltase = assay: Intestinal alpha-glucosidase assay, maltose substrate; conditions: alpha-glucosidase from intestinal rat powder
Protocol: (§1) Intestinal alpha-glucosidases (rat maltase and sucrase): Intestinal alpha-glucosidases act upon 1,4-alpha-glucoside bonds, breaking down disaccharides to glucose. To perform this assay, partially purified alpha-glucosidase from intestinal rat powder was incubated for 60 minutes at 37° C. with multiple dilutions of test compounds. Maltose or Sucrose respectively was then introduced as substrate to the mixture and incubated for 30 minutes at 37° C. The reaction was stopped by a 5-minute incubation at 90° C. and the resultant glucose production is detected using Sigma's Glucose GO Kit. Percent inhibition was then plotted as a function of concentration for each test compound. The IC50 was determined using a 4-PL curve fit and serves as the measure of relative inhibition of each test compound (see Table 4). Table 4 summarizes the results of IC50s for each molecule against each tested glucosidase enzyme.

recombinant human GBA = biological target: T1, recombinant human GBA (Homo sapiens, UniProt P04062); assay: Beta-glucocerebrosidase (GBA) inhibition assay; conditions: 4-methylumbelliferyl-beta-D-pyranoside substrate, 4-PL curve fit
T1 construct: purchased
T1 sequence (P04062 40-536): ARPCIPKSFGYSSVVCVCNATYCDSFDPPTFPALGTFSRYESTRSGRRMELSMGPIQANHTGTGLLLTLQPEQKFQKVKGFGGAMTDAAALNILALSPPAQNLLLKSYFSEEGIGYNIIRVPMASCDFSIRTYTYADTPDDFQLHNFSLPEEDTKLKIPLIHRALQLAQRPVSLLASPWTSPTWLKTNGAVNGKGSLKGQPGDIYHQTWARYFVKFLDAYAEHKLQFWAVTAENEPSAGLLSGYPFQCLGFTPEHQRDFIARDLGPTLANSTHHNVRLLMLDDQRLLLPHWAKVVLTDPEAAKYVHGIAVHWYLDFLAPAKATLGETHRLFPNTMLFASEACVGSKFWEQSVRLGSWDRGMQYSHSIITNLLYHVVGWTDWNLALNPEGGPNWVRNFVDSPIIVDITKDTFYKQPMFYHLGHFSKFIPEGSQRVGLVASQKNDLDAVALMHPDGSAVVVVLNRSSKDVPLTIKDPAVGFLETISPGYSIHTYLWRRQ
Protocol: Beta-glucocerebrosidase (GBA, also referred to glucosylceramidase): To analyze inhibitory effects of a test compound, commercially available recombinant human GBA was incubated with multiple dilutions of test compound for 60 minutes at 37° C. 4-methylumbelliferyl-beta-D-pyranoside was then introduced to the mixture as substrate. Following incubation for 60 minutes at 37° C., 1,4-methyllumbelliferone was generated, and the reaction was stopped with the stop solution (0.5 M glycine; 0.3 M NaOH, pH 10). 1,4-methyllumbelliferone was detected by fluorescence (excitation at 365 nm, emission at 440 nm). Relative fluorescence is compared to untreated enzymatic activity and test compound concentration is then plotted as a function of percent inhibition. The IC50 was determined using a 4-PL curve fit as the measure of relative inhibitory activity of each test compound (see Table 4).

rat sucrase = biological target: T2, rat sucrase (Rattus norvegicus, UniProt P23739); assay: Intestinal alpha-glucosidase assay, sucrose substrate; conditions: alpha-glucosidase from intestinal rat powder
T2 construct: partially purified alpha-glucosidase from intestinal rat powder; from tissue; host or cells: rat intestinal powder
Protocol: as §1

T2 sequence (P23739 whole entry): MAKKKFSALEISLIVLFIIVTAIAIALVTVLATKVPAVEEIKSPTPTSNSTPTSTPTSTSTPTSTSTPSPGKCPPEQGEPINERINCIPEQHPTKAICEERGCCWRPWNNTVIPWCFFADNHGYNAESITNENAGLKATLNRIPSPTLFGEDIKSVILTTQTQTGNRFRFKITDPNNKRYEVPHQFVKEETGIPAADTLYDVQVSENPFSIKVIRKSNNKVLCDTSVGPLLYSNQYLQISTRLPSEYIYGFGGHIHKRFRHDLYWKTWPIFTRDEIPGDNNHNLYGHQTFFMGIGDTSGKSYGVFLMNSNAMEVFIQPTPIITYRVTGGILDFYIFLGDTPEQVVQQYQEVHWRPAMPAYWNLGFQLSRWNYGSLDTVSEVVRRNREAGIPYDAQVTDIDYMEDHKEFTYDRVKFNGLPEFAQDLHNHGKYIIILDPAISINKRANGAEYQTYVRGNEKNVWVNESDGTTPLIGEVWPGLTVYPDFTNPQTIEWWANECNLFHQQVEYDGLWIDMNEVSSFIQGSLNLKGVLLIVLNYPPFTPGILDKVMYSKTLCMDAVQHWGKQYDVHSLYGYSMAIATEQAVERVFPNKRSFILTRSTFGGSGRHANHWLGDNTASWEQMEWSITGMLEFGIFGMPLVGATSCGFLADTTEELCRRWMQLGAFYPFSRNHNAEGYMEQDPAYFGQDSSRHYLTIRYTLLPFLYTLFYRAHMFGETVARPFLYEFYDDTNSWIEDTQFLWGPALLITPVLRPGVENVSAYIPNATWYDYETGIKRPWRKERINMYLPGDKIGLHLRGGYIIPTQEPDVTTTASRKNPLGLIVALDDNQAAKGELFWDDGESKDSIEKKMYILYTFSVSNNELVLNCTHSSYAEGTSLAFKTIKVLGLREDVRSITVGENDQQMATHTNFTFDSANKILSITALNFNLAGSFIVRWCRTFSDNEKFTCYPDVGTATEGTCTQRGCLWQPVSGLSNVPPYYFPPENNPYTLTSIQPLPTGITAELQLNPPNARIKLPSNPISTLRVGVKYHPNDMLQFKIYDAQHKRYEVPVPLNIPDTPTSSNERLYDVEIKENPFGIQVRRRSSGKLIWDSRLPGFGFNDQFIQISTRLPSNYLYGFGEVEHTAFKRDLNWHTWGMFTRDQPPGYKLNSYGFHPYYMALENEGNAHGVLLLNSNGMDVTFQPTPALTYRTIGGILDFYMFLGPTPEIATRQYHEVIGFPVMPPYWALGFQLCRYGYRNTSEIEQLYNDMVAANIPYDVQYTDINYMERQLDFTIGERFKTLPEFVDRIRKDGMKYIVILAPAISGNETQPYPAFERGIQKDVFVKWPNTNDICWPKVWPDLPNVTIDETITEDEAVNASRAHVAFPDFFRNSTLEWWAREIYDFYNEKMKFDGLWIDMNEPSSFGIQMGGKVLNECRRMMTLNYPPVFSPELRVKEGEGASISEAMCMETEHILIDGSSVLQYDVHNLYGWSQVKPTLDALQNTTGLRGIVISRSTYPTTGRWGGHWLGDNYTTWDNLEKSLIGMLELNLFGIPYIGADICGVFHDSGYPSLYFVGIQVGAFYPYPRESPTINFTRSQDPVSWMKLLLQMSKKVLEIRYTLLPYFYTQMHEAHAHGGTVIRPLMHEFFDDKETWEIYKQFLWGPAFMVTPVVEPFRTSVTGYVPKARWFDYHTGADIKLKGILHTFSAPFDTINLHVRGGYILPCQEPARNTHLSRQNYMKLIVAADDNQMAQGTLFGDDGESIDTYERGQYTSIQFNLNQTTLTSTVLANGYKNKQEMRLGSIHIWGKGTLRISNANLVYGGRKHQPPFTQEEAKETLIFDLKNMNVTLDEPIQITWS

IC50 (rat maltase): 1.47 µM | IC50 (recombinant human GBA): > 1000 µM | IC50 (rat sucrase): 0.07 µM
Structure (SMILES): CCCCN[C@H]1C[C@](O)(CO)[C@@H](O)[C@H](O)[C@H]1O [Compound 1, (1S,2S,3R,4S,5S)-5-(butylamino)-1-(hydroxymethyl)cyclohexane-1,2,3,4-tetraol]
